Data set [1] can be described thus: C3 partitioning and plasma protein binding in mouse blood and plasma. In kind it is in vitro ADME.
A short description of data set [2]: Tissue distribution of 14C-C3 in mice. The arrangement: species or system C57BL/6J mice. The following applies: mouse, in vivo.
Data set [3] is described as follows: Stability of C3 in solutions at pH 1 or pH 10. In kind it is physicochemical. Conditions: pH 1 or pH 10 for >24 h at 37°C.
For data set [4] the following is noted: mouse, in vivo; for V (volume of distribution): 1.1 mg/kg.
The conditions of data set [5]: mouse, in vivo.
In the next data set the test system is pregnant mouse dams. The following applies: in vivo; cited from earlier work.
Where [6] appears, read: 10 or 100 μg/ml, 3000 mwco centricon filter.

Read-outs that look alike come from different tables or passages of the source.

For the substance e,e,e, tris malonic acid C60 [C3], in data set [1] (setting [6]), the “14C-C3 in the filtrate of the saline control” value is reported as 73% and the “14C-C3 in the plasma filtrate (free)” value was 13%. Also, in data set [1] (blood from treated animals and naïve blood spiked with 14C-C3, centrifugation), the “fraction of blood C3 in the plasma fraction” value is listed as more than 99%. Also, the protein bound in data set [1] (mouse plasma, 10 or 100 μg/ml, mean ± SEM) came to 87 ± 0.1%. In data set [2], the “tissue radioactivity, 7-day pump vs single bolus dose, adjusted for dose” value is listed as 5 times. In addition, in data set [3], the stability in solution entry was “a small fraction of carboxylic acid head-groups were removed, but the cyclopropane carbons were intact”. Further, the “V (volume of distribution)” value in data set [4] (ip) worked out at 0.91 ± 0.12 L/kg. Moreover, the “V (volume of distribution)” value in data set [4] (iv) is 0.85 ± 0.08 L/kg. Also, in data set [4] (po), the Oral bioavailability is ~ 10 % of the i.v. administration. In data set [5], the brain uptake is 10 % of the administered dose. Besides, the “effects on fertility, pregnancy, viability or anatomy of the offspring” value in the data set on pregnant mouse dams is reported as “failed to find any effects”.

The values above are taken from publication PMC6128740 (European journal of drug metabolism and pharmacokinetics, 2018).
